The source of these data is patent US11401270B2, “Alcoxyamino derivatives for treating pain and pain related conditions” (ESTEVE PHARMACEUTICALS, S.A., priority 2017, dated 2022).

For experiment [1], the target named is Human norepinephrine transporter (NET) (Homo sapiens (Human), UniProt P23975). In words: Binding Assay to Human Norepinephrine Transporter (NET). The following applies: Table 2, dual compounds; human NET enriched membranes, 5 nM [3H]-Nisoxetin; read-out: Ki(nM) NET Hum. As for the experimental part: Binding Assay to Human Norepinephrine Transporter (NET).
Human norepinephrine transporter (NET) enriched membranes (5 μg) were incubated with 5 nM of radiolabeled [3H]-Nisoxetin in assay buffer containing 50 mM Tris-HCl, 120 mM NaCl, 5 mM KCl, pH 7.4.
NSB (non specific binding) was measured by adding 10 μM desipramine. The binding of the test compound was measured in five different concentrations. After 60 min incubation at 4° C., binding reaction was terminated by filtering through Multiscreen GF/C (Millipore) presoaked in 0.5% polyethyleneimine in Vacuum Manifold Station, followed by 3 washes with ice-cold filtration buffer containing 50 mM Tris-HCl, 0.9% NaCl, pH 7.4.
Filter plates were dried at 60° C. for 1 hour and 30 μl of scintillation cocktail were added to each well before radioactivity reading.

Experiment [2] addresses Human α2δ-1 subunit of Cav2.2 calcium channel (Homo sapiens (Human), UniProt P54289). In words: Binding Assay to Human α2δ-1 Subunit of Cav2.2 Calcium Channel. The following applies: human α2δ-1 enriched membranes, 15 nM [3H]-Gabapentin, read-out: Ki(nM) alpha2delta Hum. A digest of the protocol: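 Radioligand filtration binding at the α2δ-1 subunit, test compound at five concentrations; nonspecific binding defined with 10 μM pregabalin. Incubated 60 min at 27 °C, stopped by GF/C filtration (0.5% PEI presoaked) with ice-cold 50 mM Tris-HCl pH 7.4 washes; bound radioactivity counted by scintillation.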

The structures appear in SMILES notation. Where two headings read alike, the source gives them in different places. Bounds are passed on as bounds.

Chain of Human α2δ-1 subunit of Cav2.2 calcium channel (P54289 25-1103): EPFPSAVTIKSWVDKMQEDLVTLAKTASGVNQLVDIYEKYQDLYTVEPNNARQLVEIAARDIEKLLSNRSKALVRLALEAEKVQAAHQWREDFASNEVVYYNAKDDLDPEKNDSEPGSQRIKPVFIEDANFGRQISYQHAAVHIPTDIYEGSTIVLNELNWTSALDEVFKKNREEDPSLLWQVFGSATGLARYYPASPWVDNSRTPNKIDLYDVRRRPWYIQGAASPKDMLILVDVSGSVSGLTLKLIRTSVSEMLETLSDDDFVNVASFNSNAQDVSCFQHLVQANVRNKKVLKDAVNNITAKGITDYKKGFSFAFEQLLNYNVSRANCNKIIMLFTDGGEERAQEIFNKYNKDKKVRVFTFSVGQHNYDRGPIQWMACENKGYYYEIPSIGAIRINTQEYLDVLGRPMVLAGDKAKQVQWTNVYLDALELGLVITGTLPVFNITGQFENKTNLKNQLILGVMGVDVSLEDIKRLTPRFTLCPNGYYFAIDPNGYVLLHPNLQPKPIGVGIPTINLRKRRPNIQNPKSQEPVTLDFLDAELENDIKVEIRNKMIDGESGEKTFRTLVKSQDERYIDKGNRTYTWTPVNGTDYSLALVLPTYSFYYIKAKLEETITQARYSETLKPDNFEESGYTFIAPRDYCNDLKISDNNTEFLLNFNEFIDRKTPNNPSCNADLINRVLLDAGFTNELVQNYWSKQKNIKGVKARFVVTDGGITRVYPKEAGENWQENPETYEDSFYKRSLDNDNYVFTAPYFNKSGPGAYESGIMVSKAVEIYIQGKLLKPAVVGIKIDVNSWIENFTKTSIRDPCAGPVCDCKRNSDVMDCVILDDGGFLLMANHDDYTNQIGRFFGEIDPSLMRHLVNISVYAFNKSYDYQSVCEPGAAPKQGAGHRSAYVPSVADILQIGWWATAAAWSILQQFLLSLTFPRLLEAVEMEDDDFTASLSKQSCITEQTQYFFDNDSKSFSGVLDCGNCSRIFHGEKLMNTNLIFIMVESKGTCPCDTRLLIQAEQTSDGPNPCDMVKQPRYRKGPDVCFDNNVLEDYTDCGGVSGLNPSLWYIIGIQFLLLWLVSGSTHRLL
Chain of Human norepinephrine transporter (NET) (P23975 whole entry): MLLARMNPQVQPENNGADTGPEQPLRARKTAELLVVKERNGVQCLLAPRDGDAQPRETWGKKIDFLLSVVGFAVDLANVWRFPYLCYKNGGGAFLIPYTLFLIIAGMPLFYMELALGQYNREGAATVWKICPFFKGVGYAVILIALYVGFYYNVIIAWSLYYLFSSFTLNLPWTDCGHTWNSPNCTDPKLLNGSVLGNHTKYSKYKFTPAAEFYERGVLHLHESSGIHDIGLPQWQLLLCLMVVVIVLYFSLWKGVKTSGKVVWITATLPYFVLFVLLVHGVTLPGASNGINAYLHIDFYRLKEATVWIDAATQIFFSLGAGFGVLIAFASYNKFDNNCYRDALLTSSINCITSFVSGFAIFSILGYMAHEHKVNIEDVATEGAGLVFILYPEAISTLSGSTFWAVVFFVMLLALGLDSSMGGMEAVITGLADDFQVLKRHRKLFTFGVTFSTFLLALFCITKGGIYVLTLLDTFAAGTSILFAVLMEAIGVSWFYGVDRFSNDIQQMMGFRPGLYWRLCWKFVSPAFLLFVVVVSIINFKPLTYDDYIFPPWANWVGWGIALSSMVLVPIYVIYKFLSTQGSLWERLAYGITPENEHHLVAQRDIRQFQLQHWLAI

As to `CNCCC(Oc1ccc(CN2CCN(C)c3nc(N)ccc3C2=O)c(F)c1)c1cccc(F)c1` (stereo not drawn) [Example 131, 8-Amino-4-(2-fluoro-4-(1-(3-fluorophenyl)-3-(methylamino)propoxy)benzyl)-1-methyl-1,2,3,4-tetrahydro-5H-pyrido[2,3-e][1,4]diazepin-5-one], the Ki was under 100 nM in experiment [1]; under 100 nM in experiment [2] (Table 1); under 100 nM in experiment [2] (Table 2, dual compounds).
Turning to `CNCCC(OCc1cccc(N2CCN(C)CCC2=O)c1)c1ccccc1` (stereo not drawn) [Example 34, 1-Methyl-4-(3-((3-(methylamino)-1-phenylpropoxy)methyl)phenyl)-1,4-diazepan-5-one], the Ki in experiment [1] is 100 to 500 nM; in experiment [2] (Table 1), 500 to 3000 nM; in experiment [2] (Table 2, dual compounds), 500 to 3000 nM.
As to `CNCCC(Oc1ccc(CN2CCN(C)c3ncccc3C2=O)c(F)c1)c1cccc(F)c1` (stereo not drawn) [Example 123, 4-(2-Fluoro-4-(1-(3-fluorophenyl)-3-(methylamino)propoxy)benzyl)-1-methyl-1,2,3,4-telrahydro-5H-pyrido[2,3-e][1,4]diazepin-5-one], the Ki was under 100 nM in experiment [1]; under 100 nM in experiment [2] (Table 1); under 100 nM in experiment [2] (Table 2, dual compounds).
In the case of `CNCC[C@H](Oc1cccc(N2CCN(C(C)C)CCC2=O)c1)c1ccsc1` [Example 77, (S)-1-isopropyl-4-(3-(3-(methylamino)-1-(thiophen-3-yl)propoxy)phenyl)-1,4-diazepan-5-one], the Ki is 100 to 500 nM in experiment [1]; 100 to 500 nM in experiment [2] (Table 1); 100 to 500 nM in experiment [2] (Table 2, dual compounds).
As for `CNCC[C@H](Oc1ccc(CN2CCN(C)c3cccnc3C2=O)cc1)c1cccs1` [Example 97, (S)-1-methyl-4-(4-(3-(methylamino)-1-(thiophen-2-yl)propoxy)benzyl)-1,2,3,4-tetrahydro-5H-pyrido[3,2-e][1,4]diazepin-6-one], the Ki lay in the range of 100 to 500 nM in experiment [1]; 500 to 3000 nM in experiment [2] (Table 1); 500 to 3000 nM in experiment [2] (Table 2, dual compounds).
Take `CNCC[C@H](Oc1cccc(N2CCN(C(C)C)CCC2=O)c1)c1cccs1` [Example 66, (S)-1-isopropyl-4-(3-(3-(methylamino)-1-(thiophen-2-yl)propoxy)phenyl)-1,4-diazepan-5-one]: the Ki lay within 100 to 500 nM in experiment [1]; 500 to 3000 nM in experiment [2] (Table 1); 500 to 3000 nM in experiment [2] (Table 2, dual compounds).
With `CCNC[C@H]1CC(=O)N(c2cccc(O[C@@H](CCNC)c3cccs3)c2)CCN1C` [Example 86, (R)-7-((ethylamino)methyl)-1-methyl-4-(3-((S)-3-(methylamino)-1-(thiophen-2-yl)propoxy)phenyl)-1,4-diazepan-5-one], the Ki in experiment [1] was in the range of 100 to 500 nM; in experiment [2] (Table 1), 500 to 3000 nM; in experiment [2] (Table 2, dual compounds) it was 500 to 3000 nM.
As to `CNCCC(Oc1cccc(N2CCN(C(C)C)CCC2=O)c1)c1ccsc1` (stereo not drawn) [Example 75, 1-Isopropyl-4-(3-(3-(methylamino)-1-(thiophen-3-yl)propoxy)phenyl)-1,4-diazepan-5-one], the Ki is 100 to 500 nM in experiment [1]; 100 to 500 nM in experiment [2] (Table 1); 100 to 500 nM in experiment [2] (Table 2, dual compounds).
Turning to `CNCCC(Oc1cccc(N2CCN(C)c3nc(C)ccc3C2=O)c1)c1ccsc1` (stereo not drawn) [Example 78, 1,8-Dimethyl-4-(3-(3-(methylamino)-1-(thiophen-3-yl)propoxy)phenyl)-1,2.3,4-tetrahydro-5H-pyrido[2,3-e][1,4]diazepin-5-one], the Ki in experiment [1] was 100 to 500 nM; in experiment [2] (Table 1), 100 to 500 nM; in experiment [2] (Table 2, dual compounds), 100 to 500 nM.
As to `CCNc1ccc2c(n1)N(C)CCN(Cc1ccc(OC(CCNC)c3ccccc3)cc1)C2=O` (stereo not drawn) [Example 111, 8-(Ethylamino)-1-methyl-4-(4-(3-(methylamino)-1-phenylpropoxy)benzyl)-1,2,3,4-tetrahydro-5H-pyrido[2,3-e][1,4]diazepin-5-one], the Ki is under 100 nM in experiment [1]; 500 to 3000 nM in experiment [2] (Table 1); 500 to 3000 nM in experiment [2] (Table 2, dual compounds).
As for `CCN1CCC(=O)N(c2cccc(OC(CCNC)c3cccs3)c2)CC1` (stereo not drawn) [Example 58, 1-Ethyl-4-(3-(3-(methylamino)-1-(thiophen-2-yl)propoxy)phenyl)-1,4-diazepan-5-one], the Ki in experiment [1] was 100 to 500 nM; in experiment [2] (Table 1), 500 to 3000 nM; in experiment [2] (Table 2, dual compounds), 500 to 3000 nM.
`CNCC[C@@H](Oc1cccc(N2CCN(C(C)C)CCC2=O)c1)c1ccsc1` [Example 76, (R)-1-isopropyl-4-(3-(3-(methylamino)-1-(thiophen-3-yl)propoxy)phenyl)-1,4-diazepan-5-one]: the Ki is under 100 nM in experiment [1]; 500 to 3000 nM in experiment [2] (Table 1); 500 to 3000 nM in experiment [2] (Table 2, dual compounds).
For `CNCCC(OCc1cccc(N2CCCN(C)CC2)c1)c1ccccc1` (stereo not drawn) [Example 6, N-methyl-3-((3-(4-methyl-1,4-diazepan-1-yl)benzyl)oxy)-3-phenylpropan-1-amine], the Ki in experiment [1] was 100 to 500 nM; in experiment [2] (Table 1), 500 to 3000 nM; in experiment [2] (Table 2, dual compounds), 500 to 3000 nM.
Consider `CNCC[C@H](Oc1cccc(N2CCN(C)c3nc(C(F)(F)F)ccc3C2=O)c1)c1cccs1` [Example 81, (S)-1-methyl-4-(3-(3-(methylamino)-1-(thiophen-2-yl)propoxy)phenyl)-8-(trifiuoromethyl)-1.2.3,4-tetrahydro-5H-pyrido[2.3-e][1,4]diazepin-5-one], for which the Ki was 500 to 1000 nM in experiment [1]; 100 to 500 nM in experiment [2] (Table 1); 100 to 500 nM in experiment [2] (Table 2, dual compounds).
As to `CCNc1ccc2c(n1)N(C)CCN(Cc1ccc(O[C@@H](CCNC)c3cccs3)cc1)C2=O` [Example 92, (S)-8-(ethylamino)-1-methyl-4-(4-(3-(methylamino)-1-(thiophen-2-yl)propoxy)benzyl)-1,2,3,4-tetrahydro-5H-pyrido[2,3-e][1,4]diazepin-5-one], the Ki in experiment [1] is under 100 nM; in experiment [2] (Table 1) it was 100 to 500 nM; in experiment [2] (Table 2, dual compounds), 100 to 500 nM.
Consider `CNCC[C@H](Oc1ccc(CN2CCCn3nc(OC)cc3C2=O)c(C)c1)c1cccs1` [Example 134, (S)-2-methoxy-5-(2-methyl-4-(3-(methylamino)-1-(thiophen-2-yl)propoxy)benzyl)-5,6,7,8-tetrahydro-4H-pyrazolo[1,5-a][1,4]diazepin-4-one], for which the Ki in experiment [1] is under 100 nM; in experiment [2] (Table 1), under 100 nM; in experiment [2] (Table 2, dual compounds), under 100 nM.
On to `CNCC[C@H](Oc1ccc(CN2CCN(C)c3ccccc3C2=O)cc1)c1cccs1` [Example 98, (S)-1-methyl-4-(4-(3-(methylamino)-1-(thiophen-2-yl)propoxy)benzyl)-1,2,3,4-tetrahydro-5H-benzo[e][1,4]diazepin-5-one], for which the Ki in experiment [1] lay within 100 to 500 nM; in experiment [2] (Table 1) it was 500 to 3000 nM; in experiment [2] (Table 2, dual compounds), 500 to 3000 nM.
As to `CNCC[C@H](Oc1ccc(CN2CCN(C)c3nc(C(F)(F)F)ccc3C2=O)cc1)c1cccs1` [Example 93, (S)-1-methyl-4-(4-(3-(methylamino)-1-(thiophen-2-yl)propoxy)benzyl)-8-(trifluoromethyl)-1,2,3,4-tetrahydro-5H-pyrido[2,3-e][1,4]diazepin-5-one], the Ki in experiment [1] lay in the range of 100 to 500 nM; in experiment [2] (Table 1) it was 100 to 500 nM; in experiment [2] (Table 2, dual compounds), 100 to 500 nM.
`CCNc1ccc2c(n1)N(C)CCN(c1cccc(COC(CCNC)c3ccccc3)c1)C2=O` (stereo not drawn) [Example 29, 8-(Ethylamino)-1-methyl-4-(3-((3-(methylamino)-1-phenylpropoxy)methyl)phenyl)-1,2,3,4-tetrahydro-5H-pyrido[2,3-e][1,4]diazepin-5-one]: the Ki lay in the range of 500 to 1000 nM in experiment [1]; 500 to 3000 nM in experiment [2] (Table 1); 500 to 3000 nM in experiment [2] (Table 2, dual compounds).
